# From PubChem BioAssay (NCI)
#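 Each compound was tested at five concentrations against cells in 96-well plates for 48 hours. The concentration for full growth arrest is given as TGI.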
# Experiments:
# Assay in all cases: NCI anticancer screen, dose series, 48 h
# [1] = system: 786-0 renal
# [2] = system: A498 renal
# [3] = system: HCC-2998 colon
# [4] = system: HCT-15 colon
# [5] = system: HOP-92 NSCLC
# [6] = system: MDA-MB-231 breast
# [7] = system: MDA-N
# [8] = system: NCI-H23 lung
# [9] = system: SK-MEL-5 melanoma
# [10] = system: SN12C renal
# [11] = system: SNB-75 CNS
SMILES,TGI [1] [µM],TGI [2] [µM],TGI [3] [µM],TGI [4] [µM],TGI [5] [µM],TGI [6] [µM],TGI [7] [µM],TGI [8] [µM],TGI [9] [µM],TGI [10] [µM],TGI [11] [µM]
O=C(Cn1c(C(=O)/C=C/c2cccs2)nc2ccccc21)c1ccc(Cl)cc1,32.8,57.9,29.8,83,93,46,56.7,36.8,43.3,50.1,> 100
CC(C)C(OC(=O)c1ccc(NCc2cc(O)ccc2O)cc1)C(C)C,2.42,9.58,10.2,1.77,1.36,9.15,12.9,6.56,7.45,11.9,3.7
CCCC(=O)NC(Nc1ccc(S(=O)(=O)Nc2nc(C)cc(C)n2)cc1)(C(F)(F)F)C(F)(F)F,> 100,> 100,> 100,> 100,> 100,> 100,> 100,> 100,> 100,> 100,> 100
O=c1cc(N2CCN(c3cc(=O)n4ccccc4n3)CC2)oc2ccccc12,> 100,> 100,> 100,> 100,> 100,> 100,> 100,> 100,> 100,> 100,> 54.3
CCOC(=O)c1nc2ccc(C(F)(F)F)cc2nc1Oc1cc(OC)cc(OC)c1,> 100,> 100,–,> 100,> 100,> 100,> 100,–,79.1,> 100,75.6
CC1(C)CC(=O)c2c(nc3ccc4ccccc4c3c2-c2ccc(NC(=O)CCCCCCCCC(=O)Nc3ccc(-c4c5c(nc6ccc7ccccc7c46)CC(C)(C)CC5=O)cc3)cc2)C1,> 100,> 100,–,> 100,> 100,> 100,> 100,> 100,> 100,> 100,–
CCOC(=O)c1cc2c3c(c(C(C)=O)c(O)c2[nH]1)N(CC(C)CC)CC3 (stereo not drawn),> 100,> 100,–,> 100,> 100,> 100,> 100,> 100,–,> 100,> 100
COc1cc(C2c3cc4c(cc3OC(NNC(N)=O)C2C)OCO4)cc(OC)c1O (stereo not drawn),> 80.1,35.7,6.5,> 100,> 90.2,> 56.9,1.02,> 100,18,> 90.4,> 100
COc1ccccc1NC(=O)CC(=O)N1N=C(C)C(N=Nc2ccc(C(=O)O)cc2)C1=O (stereo not drawn),> 100,> 100,> 100,> 100,> 100,> 100,> 100,> 100,> 100,> 100,6.06
c1cn(C23C4C5C6C4C2C6C53)cn1 (stereo not drawn),> 100,> 100,> 100,> 100,–,> 100,> 100,> 100,> 100,> 100,> 100
COc1ccc2nc3cc([N+](=O)[O-])ccc3c(Nc3ccc(S(=O)(=O)NC(C)=O)cc3)c2c1,> 100,> 100,> 100,> 100,> 100,> 100,> 100,> 100,> 100,> 100,–
C[C@H]1C[C@H]2[C@@H]3C(C)(C)O[C@]4(O)C(=O)[C@]5(O)[C@@H](C)CC[C@H]1[C@]25C(=O)[C@]34C,> 100,87,–,> 100,62.7,> 100,> 100,> 100,81.7,> 100,–
CSc1n[nH]c(N)c1C(=O)Nc1ccc(C)cc1,> 100,82.7,> 100,> 100,68.3,> 100,> 100,> 100,> 100,> 100,–
C=C(C)C(O)C(O)c1c(OC)ccc2ccc(=O)oc12 (stereo not drawn),> 100,> 100,> 100,> 100,> 100,> 100,> 100,> 100,> 100,> 100,> 100
